Experiments:
[1] = Inhibition of recombinant his tagged IMP1 (unknown origin) expressed in Escherichia coli (DE3) cells using FC5 as substrate by microplate reader assay
[2] = Inhibition of recombinant NDM1 (unknown origin) expressed in Escherichia coli (DE3) cells using FC5 as substrate by microplate reader assay
[3] = Inhibition of recombinant VIM-1 (unknown origin) expressed in Escherichia coli (DE3) cells using FC5 as substrate by microplate reader assay
[4] = Inhibition of recombinant his tagged VIM-2 (unknown origin) expressed in Escherichia coli (DE3) cells using FC5 as substrate by microplate reader assay
[5] = Inhibition of recombinant VIM-5 (unknown origin) expressed in Escherichia coli (DE3) cells using FC5 as substrate by microplate reader assay
Escherichia coli [6] = experiment: Antibacterial activity against Escherichia coli BAA2452 expressing blaNDM-1 clinical isolates assessed as meropenem MIC incubated for 16 to 18 hrs by broth microdilution method; type: functional; conditions: time 16-18 hrs; note: test concentration or dose not given here
Enterobacterales [7] = experiment: Antibacterial activity against Carbapenem-Resistant Enterobacterales 19 expressing blaNDM-1 clinical isolates assessed as meropenem MIC incubated for 16 to 18 hrs by broth microdilution method; type: functional; conditions: time 16-18 hrs; note: test concentration or dose not given here
Klebsiella pneumoniae [8] = experiment: Antibacterial activity against Klebsiella pneumoniae BAA2470 expressing blaNDM-1 clinical isolates assessed as meropenem MIC incubated for 16 to 18 hrs by broth microdilution method; type: functional; conditions: time 16-18 hrs; note: test concentration or dose not given here
Escherichia coli [9] = experiment: Antibacterial activity against Escherichia coli C1580 expressing blaIMP-1 clinical isolates assessed as meropenem MIC incubated for 16 to 18 hrs by broth microdilution method; type: functional; conditions: time 16-18 hrs; note: test concentration or dose not given here
Escherichia coli [10] = experiment: Antibacterial activity against Escherichia coli BAA2452 expressing blaNDM-1 clinical isolates assessed as fold potentiation incubated for 16 to 18 hrs by broth microdilution method; type: functional; conditions: time 16-18 hrs; note: test concentration or dose not given here
Enterobacterales [11] = experiment: Antibacterial activity against Carbapenem-Resistant Enterobacterales 19 expressing blaNDM-1 clinical isolates assessed as fold potentiation incubated for 16 to 18 hrs by broth microdilution method; type: functional; conditions: time 16-18 hrs; note: test concentration or dose not given here
Klebsiella pneumoniae [12] = experiment: Antibacterial activity against Klebsiella pneumoniae BAA2470 expressing blaNDM-1 clinical isolates assessed as fold potentiation incubated for 16 to 18 hrs by broth microdilution method; type: functional; conditions: time 16-18 hrs; note: test concentration or dose not given here
Escherichia coli [13] = experiment: Antibacterial activity against Escherichia coli C1580 expressing blaIMP-1 clinical isolates assessed as fold potentiation incubated for 16 to 18 hrs by broth microdilution method; type: functional; conditions: time 16-18 hrs; note: test concentration or dose not given here
Escherichia coli [14] = experiment: Antibacterial activity against Escherichia coli C1541 expressing blaVIM-2 clinical isolates assessed as meropenem MIC incubated for 16 to 18 hrs by broth microdilution method; type: functional; conditions: time 16-18 hrs; note: test concentration or dose not given here
Escherichia coli [15] = experiment: Antibacterial activity against Escherichia coli C1541 expressing blaVIM-2 clinical isolates assessed as fold potentiation incubated for 16 to 18 hrs by broth microdilution method; type: functional; conditions: time 16-18 hrs; note: test concentration or dose not given here

| IC50 [1] [µM] | IC50 [2] [µM] | IC50 [3] [µM] | IC50 [4] [µM] | IC50 [5] [µM] | SMILES | MIC (Escherichia coli [6]) [µg/mL] | MIC (Enterobacterales [7]) [µg/mL] | MIC (Klebsiella pneumoniae [8]) [µg/mL] | MIC (Escherichia coli [9]) [µg/mL] | fold change (FC) (Escherichia coli [10]) | fold change (FC) (Enterobacterales [11]) | fold change (FC) (Klebsiella pneumoniae [12]) | fold change (FC) (Escherichia coli [13]) | MIC (Escherichia coli [14]) [µg/mL] | fold change (FC) (Escherichia coli [15]) |
| --- | --- | --- | --- | --- | --- | --- | --- | --- | --- | --- | --- | --- | --- | --- | --- |
| 24.1 | 19.3 | 1.82 | 0.29 | 0.086 | NCC(=O)Nc1cccc(-c2cn(-c3cccc(CP(=O)(O)O)c3)nn2)c1 |  |  |  |  |  |  |  |  |  |  |
| 4.4 | 24.6 | 5.48 | 0.77 | 0.045 | Cc1ccc(-c2cn(-c3cccc(CP(=O)(O)O)c3)nn2)cc1 |  |  |  |  |  |  |  |  |  |  |
| > 100 | > 100 | 8.99 | 2.44 | 2.03 | O=P(O)(O)Cc1ccc(-n2cc(-c3cccc(Cl)c3)nn2)cc1 |  |  |  |  |  |  |  |  |  |  |
| 6.54 | 58.4 | 12.3 | 1.98 | 0.11 | O=C(NCc1cccc(-c2cn(-c3cccc(CP(=O)(O)O)c3)nn2)c1)C(F)(F)F |  |  |  |  |  |  |  |  |  |  |
| 3.24 | 15.1 | 5.84 | 0.17 | 0.28 | Nc1ccc(-c2cn(-c3cccc(CP(=O)(O)O)c3)nn2)cc1 |  |  |  |  |  |  |  |  |  |  |
| 2.17 | 24.3 | 9.64 | 0.29 | 0.063 | O=P(O)(O)Cc1cccc(-n2cc(-c3ccc(F)cc3)nn2)c1 |  |  |  |  |  |  |  |  |  |  |
| 6.41 | 7.63 | 4.26 | 0.17 | 0.043 | COc1ccc(-c2cn(-c3cccc(CP(=O)(O)O)c3)nn2)cc1 |  |  |  |  |  |  |  |  |  |  |
| 12.2 | 60 | 8.74 | 0.83 | 0.093 | COc1cccc(-c2cn(-c3cccc(CP(=O)(O)O)c3)nn2)c1 |  |  |  |  |  |  |  |  |  |  |
| > 100 | 65.5 | 11.8 | 2.03 | 1.16 | Cc1cccc(-c2cn(-c3ccc(CP(=O)(O)O)cc3)nn2)c1 |  |  |  |  |  |  |  |  |  |  |
| 8.34 | 40.2 | 7.12 | 0.44 | 0.18 | O=P(O)(O)Cc1cccc(-n2cc(-c3ccc(Cl)cc3)nn2)c1 |  |  |  |  |  |  |  |  |  |  |
| 11.3 | 24.2 | 4.97 | 0.66 | 0.016 | O=P(O)(O)Cc1cccc(-n2cc(-c3cccc(Br)c3)nn2)c1 |  |  |  |  |  |  |  |  |  |  |
| 37.1 | 42.5 | 7.75 | 2.56 | 0.28 | NCc1cccc(-c2cn(-c3cccc(CP(=O)(O)O)c3)nn2)c1 |  |  |  |  |  |  |  |  |  |  |
| > 100 | 16.6 | 22.1 | 2.48 | 2.28 | Nc1ccccc1-c1cn(-c2ccc(CP(=O)(O)O)cc2)nn1 |  |  |  |  |  |  |  |  |  |  |
| 7.17 | > 100 | 6.85 | 0.24 | 0.031 | O=P(O)(O)Cc1cccc(-n2cc(-c3cccc(Cl)c3)nn2)c1 |  |  |  |  |  |  |  |  |  |  |
| 6.74 | 34.7 | 6.67 | 0.97 | 0.08 | O=P(O)(O)Cc1cccc(-n2cc(-c3cccc(F)c3)nn2)c1 |  |  |  |  |  |  |  |  |  |  |

The next lines start with the compound.

| SMILES | IC50 [1] [µM] | IC50 [2] [µM] | IC50 [3] [µM] | IC50 [4] [µM] | IC50 [5] [µM] | MIC (Escherichia coli [6]) [µg/mL] | MIC (Enterobacterales [7]) [µg/mL] | MIC (Klebsiella pneumoniae [8]) [µg/mL] | MIC (Escherichia coli [9]) [µg/mL] | fold change (FC) (Escherichia coli [10]) | fold change (FC) (Enterobacterales [11]) | fold change (FC) (Klebsiella pneumoniae [12]) | fold change (FC) (Escherichia coli [13]) | MIC (Escherichia coli [14]) [µg/mL] | fold change (FC) (Escherichia coli [15]) |
| --- | --- | --- | --- | --- | --- | --- | --- | --- | --- | --- | --- | --- | --- | --- | --- |
| Cc1ccc(-c2ccc(C(c3cccc(-n4cc(-c5cccc(N)c5)nn4)c3)P(=O)(O)O)cc2)cc1 (centres undefined) | 0.43 | 0.59 | 0.66 | 0.00066 | 0.002 | 16 | 8 | 64 | 2 | 8 | 8 | >2 | 16 |  |  |
| Nc1cccc(-c2cn(-c3cccc(CP(=O)(O)O)c3)nn2)c1 | 1.96 | 7.27 | 2.21 | 0.092 | 0.019 | 32 | 16 | 128 | 2 | 4 | 4 | >1 | 16 | 4 | 4 |
| O=P(O)(O)Cc1cccc(-n2cc(-c3ccc(Br)cc3)nn2)c1 | 3.28 | 11.2 | 11.4 | 0.076 | 0.05 | 32 | 16 | 128 | 2 | 4 | 4 | >1 | 16 | 4 | 4 |
| CCCCc1cn(-c2cccc(CP(=O)(O)O)c2)nn1 | 12.3 | > 100 | 16.5 | 2.23 | 1.73 |  |  |  |  |  |  |  |  |  |  |
| O=P(O)(O)Cc1cccc(-n2cc(CNc3ccccc3)nn2)c1 | 0.78 | 2.84 | 3.77 | 0.84 | 0.64 |  |  |  |  |  |  |  |  |  |  |
| Nc1ccccc1-c1cn(-c2cccc(CP(=O)(O)O)c2)nn1 | 6.5 | 7.71 | 5.61 | 0.013 | 0.51 | 32 | 8 | 128 | 2 | 4 | 8 | >1 | 16 | 1 | 16 |
| Nc1cccc(-c2cn(-c3cccc(C(c4ccc(F)cc4)P(=O)(O)O)c3)nn2)c1 (centres undefined) | 0.7 | 2 | 0.44 | 0.006 | 0.001 | 16 | 8 | 64 | 2 | 8 | 8 | >2 | 16 | 0.5 | 32 |
| O=[N+]([O-])c1ccc(Cn2cc(-c3cccc(B(O)O)c3)nn2)cc1 | > 100 | 48 | > 100 | 9.76 | 81.1 | 64 | 32 | > 128 | 16 | 2 | 2 |  | 2 | 64 |  |
| O=P(O)(O)Cc1ccc(-n2cc(CNc3ccccc3)nn2)cc1 | > 100 | > 100 | 26.7 | 13.3 | 7.43 |  |  |  |  |  |  |  |  |  |  |
| Nc1cccc(-c2cn(-c3cccc(C(c4ccc(Cl)cc4)P(=O)(O)O)c3)nn2)c1 (centres undefined) | 0.54 | 0.67 | 0.34 | 0.001 | 0.00043 | 16 | 8 | 64 | 2 | 8 | 8 | >2 | 16 | 1 | 16 |
| CC(C)(C)c1cn(-c2cccc(CP(=O)(O)O)c2)nn1 | 9.5 | 27.1 | 24.6 | 4.44 | 0.52 |  |  |  |  |  |  |  |  |  |  |
| O=P(O)(O)Cc1cccc(-n2cc(-c3ccccc3Br)nn2)c1 | 1.9 | 5.2 | 7.16 | 0.72 | 0.095 | 32 | 16 | 128 | 2 | 4 | 4 | >1 | 16 | 4 | 4 |
| Nc1cccc(-c2cn(-c3cccc(C(c4ccc(Br)cc4)P(=O)(O)O)c3)nn2)c1 (centres undefined) | 0.44 | 0.66 | 0.2 | 0.007 | 0.003 | 16 | 8 | 64 | 4 | 8 | 8 | >2 | 8 | 1 | 16 |
| NCCOc1ccc(-c2cn(-c3cccc(C(=O)O)c3C(=O)O)nn2)cc1 | 1.83 | > 100 | > 100 | 3.69 | > 100 | 64 | 64 | > 128 | 0.25 | 2 | 1 |  | 128 | 32 |  |
| O=C(NCc1cn(-c2ccc(CP(=O)(O)O)cc2)nn1)C(F)(F)F | > 100 | > 100 | 27.9 | 27.2 | 31.8 |  |  |  |  |  |  |  |  |  |  |
| O=C(NCc1cn(-c2cccc(CP(=O)(O)O)c2)nn1)C(F)(F)F | 54.6 | 73.7 | 33.7 | 2.22 | 0.028 |  |  |  |  |  |  |  |  |  |  |
| NCc1cn(-c2cccc(CP(=O)(O)O)c2)nn1 | > 100 | > 100 | 23.9 | 2.69 | 14.5 |  |  |  |  |  |  |  |  |  |  |

Source: ChEMBL document CHEMBL5620345, “Metal binding pharmacophore click-derived discovery of new broad-spectrum metallo-β-lactamase inhibitors” (Eur J Med Chem, 2023)
